Laboratory results: PMC3836994, “Killer Bee Molecules: Antimicrobial Peptides as Effector Molecules to Target Sporogonic Stages of Plasmodium” (PLoS Pathogens, 2013)
No end group written: not given here.

What was measured:
[1] = tested on: Anopheles gambiae Sua 4.0 cells; experiment: Sua 4.0 mosquito cell viability (erythrosin B exclusion); format: cell-based; parameters: dose or concentration left out as unconfirmed; conditions: after 48 h culture; for Average viability of cells (3 replicates), peptide: erythrosin B exclusion, 100 cells in triplicate wells; for Reduction in cell viability: versus control
[2] = tested on: P. berghei; experiment: P. berghei infections in Anopheles stephensi (oocyst prevalence and intensity); format: in vivo, Plasmodium berghei; conditions: for Prevalence (proportion of infected mosquitoes), peptide: 50 µM peptide in gametocytaemic mouse blood fed to An. stephensi; for Intensity (mean number of oocysts, range in parentheses), peptide: 50 µM peptide, An. stephensi
Method: To assess the effects of AMPs on parasites in vivo, mouse blood containing P. berghei gametocytes was obtained by cardiac puncture and 475 µl was rapidly mixed with 25 µl (50 µM final concentration) of AMP. This mixture was fed to 100 nulliparous 3–5 day old female An. stephensi. A further 475 µl of blood from the same infection was mixed with 25 µl of distilled water to act as a control. Mosquitoes were maintained at 19°C for optimum parasite development. Between 30 and 50 mosquitoes were dissected after 10 days. Mosquito wing length, numbers of retained eggs and oocysts were recorded in triplicate experiments carried out on different mosquito cohorts.

[3] = tested on: P. falciparum; experiment: Cultured P. falciparum gametocytes membrane-fed to An. gambiae (oocyst prevalence and intensity); format: in vivo, Plasmodium falciparum; conditions: 50 µM; for Oocyst intensity (mean number of oocysts per gut, range in parentheses), peptide / Oocyst prevalence (oocyst positive mosquitoes), peptide: cultured gametocytes, An. gambiae
Method: P. falciparum NF54 gametocytes were produced through large-scale automated culture at the Pasteur Institute, Paris, [69]. Gametocytes were grown in 10 ml RPMI 1640 medium (Invitrogen), supplemented with 25 mM HEPES and L-glutamine, 10% heat-inactivated human serum and hypoxanthine (20 mg/L) under a constant gas supply (5% CO2, 1% O2, 94% N2). Fresh red blood cells (RBCs) were added to obtain a 7% haematocrit. Fourteen days after initiating the culture, gametocyte maturity was assessed on thin Giemsa-stained blood smears, and male gametocyte maturity verified by exflagellation tests. Gametocyte cultures were centrifuged for 5 min at 1500 rpm and the ∼500–600 µl pellet resuspended in fresh RBCs and AB human serum to give a final haematocrit of 40%.
Blood containing mature gametocytes (475 µl) was added to 25 µl of the test AMP (50 µM final concentration). Peptides were replaced by 25 µl of sterile deionized water for each control. The blood/parasite/peptide mixture was placed in a Hemotek membrane feeder, previously warmed to 37°C. For each feed, 70 to 100 nulliparous female An. gambiae mosquitoes were left to feed in the dark for 15 min and only fully engorged females were transferred to small cages and provided with 10% sucrose containing 0.05% PABA. After 8 days, 30 midguts were dissected and stained with bromo fluorescein for the detection of oocysts.

Sequence	Average viability of cells (3 replicates), peptide [1]	Reduction in cell viability [1]	Prevalence (proportion of infected mosquitoes), peptide ([2]; Replicate 1)	Intensity (mean number of oocysts, range in parentheses), peptide ([2]; Replicate 1)	Prevalence (proportion of infected mosquitoes), peptide ([2]; Replicate 2)	Intensity (mean number of oocysts, range in parentheses), peptide ([2]; Replicate 2)	Prevalence (proportion of infected mosquitoes), peptide ([2]; Replicate 3)	Intensity (mean number of oocysts, range in parentheses), peptide ([2]; Replicate 3)	Oocyst intensity (mean number of oocysts per gut, range in parentheses), peptide ([3]; Replicate 1)	Oocyst prevalence (oocyst positive mosquitoes), peptide ([3]; Replicate 1, dissected after 8 days)	Oocyst intensity (mean number of oocysts per gut, range in parentheses), peptide ([3]; Replicate 2)	Oocyst prevalence (oocyst positive mosquitoes), peptide ([3]; Replicate 2)	Oocyst intensity (mean number of oocysts per gut, range in parentheses), peptide ([3]; Replicate 3)	Oocyst prevalence (oocyst positive mosquitoes), peptide ([3]; Replicate 3)	Average reduction of intensity of infection ([3]; over three replicates)	Average reduction of prevalence ([3]; over three replicates)	Average viability of cells (3 replicates), peptide ([1]; listed as Vida3 dimer)
AGYLLGKINLKALAALAKKILGGAGYLLGKINLKALAALAKKIL [TP10 dimer, TP10 (dimer)]	1%	99%	56% (50)	2 (0–84)	66% (50)	4 (0–67)	56% (50)	2 (0–13)	<1 (0–2)	17% (30)	0	0% (30)	2 (0–14)	37% (30)	82%	60%	
KFPKFRRGIPFLFVGPSGKFPKFRRGIPFLFV [Vida 3 dimer]	58%	38%	33% (40)	1 (0–6)	80% (50)	37 (0–271)	76% (50)	4 (0–67)									above 50%
